Values after ≈ are worked out from the molar mass of the structure shown.
test system: Aspergillus flavus; assay: Synergistic antifungal activity against Aspergillus flavus ATCC 16870 assessed as polyoxin B MIC incubated for 24 hrs by checkerboard broth microdilution method; type: functional; details: not given

**Q.** Which MIC does the source give for `O=C(/C=C/C(=O)Nc1ccccc1[N+](=O)[O-])Nc1ccc2c(c1)C(=O)NC1(CCSC1)N2` (stereo not given) here?
**A.** 16 µg/mL

test system: Aspergillus flavus; assay: Antifungal activity against Aspergillus flavus ATCC 16870 assessed as inhibition of cell wall synthesis incubated for 24 hrs in absence of sorbitol; type: functional; details: not given

**Q.** For `O=C(/C=C/C(=O)Nc1ccccc1[N+](=O)[O-])Nc1ccc2c(c1)C(=O)NC1(CCSC1)N2` (stereo not given), which MIC is on record?
**A.** 8 µg/mL (≈ 17.6 µM)

test system: Candida tropicalis; assay: Inhibition of Candida tropicalis ATCC 750 chitin synthase using […] as substrate at 300 ug/ml incubated for 1 hr by absorbance based assay relative to control; details: dose 300.0 µg/ml

**Q.** With `O=C(/C=C/C(=O)Nc1ccccc1[N+](=O)[O-])Nc1ccc2c(c1)C(=O)NC1(CCSC1)N2` (stereo not given) as the compound, how does the inhibition read?
**A.** 81.9%

test system: Candida albicans; assay: Additive antifungal activity against Candida albicans ATCC 76615 assessed as fractional inhibitory concentration index incubated for 24 hrs in presence of fluconazole by checkerboard broth microdilution method; type: functional; details: not given

**Q.** Which “fractional inhibitory concentration index (FICI)” value does the source give for `O=C(/C=C/C(=O)Nc1ccccc1[N+](=O)[O-])Nc1ccc2c(c1)C(=O)NC1(CCSC1)N2` (stereo not given) here?
**A.** 1.125

test system: Candida albicans; assay: Antifungal activity against Fluconazole-resistant Candida albicans ATCC 76615R assessed as fungal growth inhibition; type: functional; details: not given

**Q.** Which MIC does the source give for `O=C(/C=C/C(=O)Nc1ccccc1[N+](=O)[O-])Nc1ccc2c(c1)C(=O)NC1(CCSC1)N2` (stereo not given) here?
**A.** 8 µg/mL (≈ 17.6 µM)

test system: Aspergillus fumigatus; assay: Antifungal activity against Fluconazole-resistant Aspergillus fumigatus GIMCC 3.19R assessed as fungal growth inhibition; type: functional; details: not given

**Q.** For `O=C(/C=C/C(=O)Nc1ccccc1[N+](=O)[O-])Nc1ccc2c(c1)C(=O)NC1(CCSC1)N2` (stereo not given), which MIC is on record?
**A.** 8 µg/mL (≈ 17.6 µM)

test system: Candida albicans; assay: Synergistic antifungal activity against Candida albicans ATCC 76615 assessed as fluconazole MIC incubated for 24 hrs in by checkerboard broth microdilution method; type: functional; details: not given

**Q.** Which MIC does the source give for `O=C(/C=C/C(=O)Nc1ccccc1[N+](=O)[O-])Nc1ccc2c(c1)C(=O)NC1(CCSC1)N2` (stereo not given) here?
**A.** 2 µg/mL

test system: Aspergillus flavus; assay: Antifungal activity against Aspergillus flavus ATCC 16870 assessed as inhibition of cell wall synthesis incubated for 24 hrs in presence of sorbitol; type: functional; details: not given

**Q.** Which MIC does the source give for `O=C(/C=C/C(=O)Nc1ccccc1[N+](=O)[O-])Nc1ccc2c(c1)C(=O)NC1(CCSC1)N2` (stereo not given) here?
**A.** 128 µg/mL

test system: Aspergillus flavus; assay: Antifungal activity against Aspergillus flavus ATCC 16870 assessed as fungal growth inhibition incubated for 24 hrs by two-fold serial dilution method; type: functional; details: not given

**Q.** Which MIC does the source give for `O=C(/C=C/C(=O)Nc1ccccc1[N+](=O)[O-])Nc1ccc2c(c1)C(=O)NC1(CCSC1)N2` (stereo not given) here?
**A.** 1 µg/mL (≈ 2.21 µM)

test system: Aspergillus fumigatus; assay: Synergistic antifungal activity against Aspergillus fumigatus GIMCC 3.19 assessed as fluconazole MIC incubated for 24 hrs in by checkerboard broth microdilution method; type: functional; details: not given

**Q.** Which MIC does the source give for `O=C(/C=C/C(=O)Nc1ccccc1[N+](=O)[O-])Nc1ccc2c(c1)C(=O)NC1(CCSC1)N2` (stereo not given) here?
**A.** 1 µg/mL

test system: Cryptococcus neoformans; assay: Antifungal activity against Cryptococcus neoformans ATCC 32719 assessed as fungal growth inhibition incubated for 24 hrs by two-fold serial dilution method; type: functional; details: not given

**Q.** For `O=C(/C=C/C(=O)Nc1ccccc1[N+](=O)[O-])Nc1ccc2c(c1)C(=O)NC1(CCSC1)N2` (stereo not given), which MIC is on record?
**A.** 4 µg/mL (≈ 8.82 µM)

test system: Candida albicans; assay: Synergistic antifungal activity against Candida albicans ATCC 76615 assessed as polyoxin B MIC incubated for 24 hrs by checkerboard broth microdilution method; type: functional; details: not given

**Q.** For `O=C(/C=C/C(=O)Nc1ccccc1[N+](=O)[O-])Nc1ccc2c(c1)C(=O)NC1(CCSC1)N2` (stereo not given), which MIC is on record?
**A.** 4 µg/mL

test system: Aspergillus fumigatus; assay: Antifungal activity against Aspergillus fumigatus GIMCC 3.19 assessed as inhibition of cell wall synthesis incubated for 24 hrs in presence of sorbitol; type: functional; details: not given

**Q.** With `O=C(/C=C/C(=O)Nc1ccccc1[N+](=O)[O-])Nc1ccc2c(c1)C(=O)NC1(CCSC1)N2` (stereo not given) as the compound, how does the MIC read?
**A.** 64 µg/mL

test system: not listed separately; assay: Inhibition of Candida tropicalis ATCC 750 chitin synthase using UDP-GlcNAc as substrate incubated for 1 hr by absorbance based assay; details: not given

**Q.** Which IC50 does the source give for `O=C(/C=C/C(=O)Nc1ccccc1[N+](=O)[O-])Nc1ccc2c(c1)C(=O)NC1(CCSC1)N2` (stereo not given) here?
**A.** 102 µM

test system: Aspergillus flavus; assay: Antifungal activity against Fluconazole-resistant Aspergillus flavus ATCC 16870R assessed as fungal growth inhibition; type: functional; details: not given

**Q.** Which MIC does the source give for `O=C(/C=C/C(=O)Nc1ccccc1[N+](=O)[O-])Nc1ccc2c(c1)C(=O)NC1(CCSC1)N2` (stereo not given) here?
**A.** 16 µg/mL (≈ 35.3 µM)

test system: Cryptococcus neoformans; assay: Synergistic antifungal activity against Cryptococcus neoformans ATCC 32719 assessed as polyoxin B MIC incubated for 24 hrs in by checkerboard broth microdilution method; type: functional; details: not given

**Q.** With `O=C(/C=C/C(=O)Nc1ccccc1[N+](=O)[O-])Nc1ccc2c(c1)C(=O)NC1(CCSC1)N2` (stereo not given) as the compound, how does the MIC read?
**A.** 16 µg/mL

test system: Cryptococcus neoformans; assay: Synergistic antifungal activity against Cryptococcus neoformans ATCC 32719 assessed as fluconazole MIC incubated for 24 hrs in by checkerboard broth microdilution method; type: functional; details: not given

**Q.** Which MIC does the source give for `O=C(/C=C/C(=O)Nc1ccccc1[N+](=O)[O-])Nc1ccc2c(c1)C(=O)NC1(CCSC1)N2` (stereo not given) here?
**A.** 0.5 µg/mL

test system: Candida albicans; assay: Synergistic antifungal activity against Candida albicans ATCC 76615 assessed as fractional inhibitory concentration index incubated for 24 hrs in presence of polyoxin B by checkerboard broth microdilution method; type: functional; details: not given

**Q.** Which “fractional inhibitory concentration index (FICI)” value does the source give for `O=C(/C=C/C(=O)Nc1ccccc1[N+](=O)[O-])Nc1ccc2c(c1)C(=O)NC1(CCSC1)N2` (stereo not given) here?
**A.** 0.75

test system: Aspergillus flavus; assay: Synergistic antifungal activity against Aspergillus flavus ATCC 16870 assessed as fluconazole MIC incubated for 24 hrs in by checkerboard broth microdilution method; type: functional; details: not given

**Q.** Which MIC does the source give for `O=C(/C=C/C(=O)Nc1ccccc1[N+](=O)[O-])Nc1ccc2c(c1)C(=O)NC1(CCSC1)N2` (stereo not given) here?
**A.** 2 µg/mL

test system: Aspergillus fumigatus; assay: Antifungal activity against Aspergillus fumigatus GIMCC 3.19 assessed as fungal growth inhibition incubated for 24 hrs by two-fold serial dilution method; type: functional; details: not given

**Q.** For `O=C(/C=C/C(=O)Nc1ccccc1[N+](=O)[O-])Nc1ccc2c(c1)C(=O)NC1(CCSC1)N2` (stereo not given), which MIC is on record?
**A.** 1 µg/mL (≈ 2.21 µM)

test system: Aspergillus flavus; assay: Synergistic antifungal activity against Aspergillus flavus ATCC 16870 assessed as fractional inhibitory concentration index incubated for 24 hrs in presence of fluconazole by checkerboard broth microdilution method; type: functional; details: not given

**Q.** Which “fractional inhibitory concentration index (FICI)” value does the source give for `O=C(/C=C/C(=O)Nc1ccccc1[N+](=O)[O-])Nc1ccc2c(c1)C(=O)NC1(CCSC1)N2` (stereo not given) here?
**A.** 1

test system: Cryptococcus neoformans; assay: Additive antifungal activity against Cryptococcus neoformans ATCC 32719 assessed as fractional inhibitory concentration index incubated for 24 hrs in presence of polyoxin B by checkerboard broth microdilution method; type: functional; details: not given

**Q.** Which “fractional inhibitory concentration index (FICI)” value does the source give for `O=C(/C=C/C(=O)Nc1ccccc1[N+](=O)[O-])Nc1ccc2c(c1)C(=O)NC1(CCSC1)N2` (stereo not given) here?
**A.** 1.5

test system: Aspergillus flavus; assay: Additive antifungal activity against Aspergillus flavus ATCC 16870 assessed as fractional inhibitory concentration index incubated for 24 hrs in presence of polyoxin B by checkerboard broth microdilution method; type: functional; details: not given

**Q.** With `O=C(/C=C/C(=O)Nc1ccccc1[N+](=O)[O-])Nc1ccc2c(c1)C(=O)NC1(CCSC1)N2` (stereo not given) as the compound, how does the “fractional inhibitory concentration index (FICI)” value read?
**A.** 1.125

test system: Aspergillus fumigatus; assay: Synergistic antifungal activity against Aspergillus fumigatus GIMCC 3.19 assessed as fractional inhibitory concentration index incubated for 24 hrs in presence of fluconazole by checkerboard broth microdilution method; type: functional; details: not given

**Q.** With `O=C(/C=C/C(=O)Nc1ccccc1[N+](=O)[O-])Nc1ccc2c(c1)C(=O)NC1(CCSC1)N2` (stereo not given) as the compound, how does the “fractional inhibitory concentration index (FICI)” value read?
**A.** 0.375

test system: Candida albicans; assay: Antifungal activity against Candida albicans ATCC 76615 assessed as fungal growth inhibition incubated for 24 hrs by two-fold serial dilution method; type: functional; details: not given

**Q.** Which MIC does the source give for `O=C(/C=C/C(=O)Nc1ccccc1[N+](=O)[O-])Nc1ccc2c(c1)C(=O)NC1(CCSC1)N2` (stereo not given) here?
**A.** 1 µg/mL (≈ 2.21 µM)

test system: Cryptococcus neoformans; assay: Additive antifungal activity against Cryptococcus neoformans ATCC 32719 assessed as fractional inhibitory concentration index incubated for 24 hrs in presence of fluconazole by checkerboard broth microdilution method; type: functional; details: not given

**Q.** For `O=C(/C=C/C(=O)Nc1ccccc1[N+](=O)[O-])Nc1ccc2c(c1)C(=O)NC1(CCSC1)N2` (stereo not given), which “fractional inhibitory concentration index (FICI)” value is on record?
**A.** 1.125

test system: Aspergillus fumigatus; assay: Antifungal activity against Aspergillus fumigatus GIMCC 3.19 assessed as inhibition of cell wall synthesis incubated for 24 hrs in absence of sorbitol; type: functional; details: not given

**Q.** With `O=C(/C=C/C(=O)Nc1ccccc1[N+](=O)[O-])Nc1ccc2c(c1)C(=O)NC1(CCSC1)N2` (stereo not given) as the compound, how does the MIC read?
**A.** 4 µg/mL (≈ 8.82 µM)

test system: Cryptococcus neoformans; assay: Antifungal activity against Fluconazole-resistant Cryptococcus neoformans ATCC 32719R assessed as fungal growth inhibition; type: functional; details: not given

**Q.** Which MIC does the source give for `O=C(/C=C/C(=O)Nc1ccccc1[N+](=O)[O-])Nc1ccc2c(c1)C(=O)NC1(CCSC1)N2` (stereo not given) here?
**A.** 8 µg/mL (≈ 17.6 µM)

test system: Candida albicans; assay: Antifungal activity against Candida albicans ATCC 76615 assessed as inhibition of cell wall synthesis incubated for 24 hrs in absence of sorbitol; type: functional; details: not given

**Q.** Which MIC does the source give for `O=C(/C=C/C(=O)Nc1ccccc1[N+](=O)[O-])Nc1ccc2c(c1)C(=O)NC1(CCSC1)N2` (stereo not given) here?
**A.** 8 µg/mL (≈ 17.6 µM)

test system: Candida albicans; assay: Antifungal activity against Candida albicans ATCC 76615 assessed as inhibition of cell wall synthesis incubated for 24 hrs in presence of sorbitol; type: functional; details: not given

**Q.** Which MIC does the source give for `O=C(/C=C/C(=O)Nc1ccccc1[N+](=O)[O-])Nc1ccc2c(c1)C(=O)NC1(CCSC1)N2` (stereo not given) here?
**A.** 128 µg/mL

test system: Cryptococcus neoformans; assay: Antifungal activity against Cryptococcus neoformans ATCC 32719 assessed as inhibition of cell wall synthesis incubated for 24 hrs in presence of sorbitol; type: functional; details: not given

**Q.** With `O=C(/C=C/C(=O)Nc1ccccc1[N+](=O)[O-])Nc1ccc2c(c1)C(=O)NC1(CCSC1)N2` (stereo not given) as the compound, how does the MIC read?
**A.** 128 µg/mL

test system: Cryptococcus neoformans; assay: Antifungal activity against Cryptococcus neoformans ATCC 32719 assessed as inhibition of cell wall synthesis incubated for 24 hrs in absence of sorbitol; type: functional; details: not given

**Q.** With `O=C(/C=C/C(=O)Nc1ccccc1[N+](=O)[O-])Nc1ccc2c(c1)C(=O)NC1(CCSC1)N2` (stereo not given) as the compound, how does the MIC read?
**A.** 8 µg/mL (≈ 17.6 µM)

test system: Aspergillus fumigatus; assay: Synergistic antifungal activity against Aspergillus fumigatus GIMCC 3.19 assessed as polyoxin B MIC incubated for 24 hrs by checkerboard broth microdilution method; type: functional; details: not given

**Q.** Which MIC does the source give for `O=C(/C=C/C(=O)Nc1ccccc1[N+](=O)[O-])Nc1ccc2c(c1)C(=O)NC1(CCSC1)N2` (stereo not given) here?
**A.** 2 µg/mL

test system: Candida albicans; assay: Antifungal activity against Micafungin-resistant Candida albicans ATCC 76615R assessed as fungal growth inhibition; type: functional; details: not given

**Q.** With `O=C(/C=C/C(=O)Nc1ccccc1[N+](=O)[O-])Nc1ccc2c(c1)C(=O)NC1(CCSC1)N2` (stereo not given) as the compound, how does the MIC read?
**A.** 8 µg/mL (≈ 17.6 µM)

test system: Aspergillus fumigatus; assay: Synergistic antifungal activity against Aspergillus fumigatus GIMCC 3.19 assessed as fractional inhibitory concentration index incubated for 24 hrs in presence of polyoxin B by checkerboard broth microdilution method; type: functional; details: not given

**Q.** Which “fractional inhibitory concentration index (FICI)” value does the source give for `O=C(/C=C/C(=O)Nc1ccccc1[N+](=O)[O-])Nc1ccc2c(c1)C(=O)NC1(CCSC1)N2` (stereo not given) here?
**A.** 0.625

— ChEMBL document CHEMBL5365394, “Design, synthesis and biological evaluation of novel spiro-quinazolinone derivatives as chitin synthase inhibitors and antifungal agents” (Eur J Med Chem, 2023)
